Source: patent US20110160444A1, “Cloning Transcription Factor Gene OsWOX20 That Regulates The Growth and Development of Monocotyledon's Root and Uses Thereof” (Huazhong Agricultural University, priority 2007, published 2011)

Assays:
OsWOX20 gene expression = assay: Induced expression of rice endogenous gene OsWOX20 by realtime-PCR; type: in vivo, rice variety Zhonghua No. 11; settings: 10 μM, roots of seedlings soaked; for Induction of expression of OsWOX20 gene: samples 0-24 h, normalized to actin1; for Time after which level of expression of OsWOX20 began to rise / Time at which level of expression of OsWOX20 reached peak: exogenous auxin
Experimental: The rice variety “Zhonghua No. 11” was used as the research material and treated with auxin, cytokinin, an auxin inhibitor and light at day ten after germination. Auxin treatment was done by soaking the roots of the seedlings with 10 μM IAA (indoleacetic acid) and 10 μM NAA (naphthaleneacetic acid) and taking samples at 0 h, 0.5 h, 1 h, 2 h, 3 h, 4 h, 6 h, 9 h, 12 h and 24 h. Cytokinin treatment was done by soaking the roots of the seedlings with 10 μM 6-BA (6-benzylaminopurine) and taking samples at 0 h, 0.5 h, 1 h, 2 h, 3 h, 4 h, 6 h, 9 h, 12 h and 24 h. Auxin inhibitor NPA (N-1-naphthylphthalamic acid) treatment was performed by soaking the roots of the seedlings in 1 μM NPA solution and taking samples at 0 h, 0.5 h, 1 h, 2 h, 3 h, 4 h, 6 h, 9 h, 12 h and 24 h. Light treatment was carried out by allowing the seeds of rice variety “Zhonghua No. 11” to germinate in dark, then placing the seedlings which have germinated for 5 days in dark under light for growth, and sampling at 1 h, 2 h, 4 h, 8 h and 12 h after light illumination. Total RNAs were extracted from whole plants (Trizol reagent, purchased from Invitrogen) and reverse transcribed according to the method described in Example 4. The reverse transcription product was subjected to quantitative PCR in a reaction system of 25 μl containing 1.5 μl of reverse transcription product, 0.25 μM of each of left and right primers and 12.5 μl of SYBR Green mixture (Applied Biosystems). The PCR reaction was performed on a 7500 real-time quantitative PCR amplifier (Applied Biosystems) according to the protocol described in the manufacturer's manual provided by Applied Biosystems, with rice actin1 gene as the internal reference of the reaction. All primers were annealed at 58° C. and reaction was performed for 40 cycles. Each sample was assayed in triplicate and normalized to the level of expression of actin1. […] The OsWOX20 primers used in the quantitative PCR were: […]

wild-type plants = assay: Effect of auxin inhibitor (NPA) on root length and numbers of crown and lateral roots, wild-type plants; type: in vivo, rice; settings: treated with 10^-6 mol/L NPA
Source text: (§1) 2) In order to compare the root system of transgenic OWOX20 lines with increased number of roots to that of wild-type lines, we collected seeds from five transgenic OWOX20 lines after the seeds were completely ripe and allowed the seeds to germinate to investigate growth of the roots.

[1] = tested on: transgenic plants (OsWOX20 overexpression lines 1-3); assay: Effect of auxin inhibitor (NPA) on root length and numbers of crown and lateral roots, OsWOX20 transgenic plants; type: in vivo, rice; settings: for Length of roots / Number of crown roots / Number of lateral roots: treated with 10^-6 mol/L NPA
Source text: as §1

Structure (SMILES): c1ccc(CNc2ncnc3nc[nH]c23)cc1 [6-BA, 6-benzylaminopurine]
- Induction of expression of OsWOX20 gene (OsWOX20 gene expression): can be induced

Structure (SMILES): O=C(O)c1ccccc1C(=O)Nc1cccc2ccccc12 [NPA, N-1-naphthylphthalamic acid]
- Length of roots (wild-type plants): 4.8 ± 0.5 cm
- Number of crown roots (wild-type plants): 3 ± 0
- Number of lateral roots (wild-type plants): 6.4 ± 2.8
- Growth of the roots ([1]; seeds from lines having increased number of roots, 10^-6 mol/L NPA): markedly inhibited
- Length of roots ([1]; transgenic Line 1+): 1.1 ± 0.3 cm
- Number of crown roots ([1]; transgenic Line 1+): 3.0 ± 2.7
- Number of lateral roots ([1]; transgenic Line 1+): 0
- Length of roots ([1]; transgenic Line 2+): 1.3 ± 0.6 cm
- Number of crown roots ([1]; transgenic Line 2+): 1.7 ± 0.6
- Number of lateral roots ([1]; transgenic Line 2+): 0
- Length of roots ([1]; transgenic Line 3+): 1.0 ± 0.6 cm
- Number of crown roots ([1]; transgenic Line 3+): 3.0 ± 1.0
- Number of lateral roots ([1]; transgenic Line 3+): 0
- Numbers and length of crown roots and lateral roots versus untreated plant lines ([1]; transgenic plant lines in the presence of NPA): significantly decreased

Structure (SMILES): O=C(O)Cc1c[nH]c2ccccc12 [IAA, indoleacetic acid]
- Induction of expression of OsWOX20 gene (OsWOX20 gene expression): can be induced
- Time after which level of expression of OsWOX20 began to rise (OsWOX20 gene expression): 30 min
- Time at which level of expression of OsWOX20 reached peak (OsWOX20 gene expression): about 1 hour

Structure (SMILES): O=C(O)Cc1cccc2ccccc12 [NAA, naphthaleneacetic acid]
- Time after which level of expression of OsWOX20 began to rise (OsWOX20 gene expression): 30 min
- Time at which level of expression of OsWOX20 reached peak (OsWOX20 gene expression): about 1 hour
